Results as given in patent US8143254B2, “Methods for modulating ion channels” (Cornell Research Foundation, Inc., priority 2005, dated 2012).

Molecular target: T1, Kv3.4 (UniProt Q63734)
T1 construct: IC50; other: Kv3.4, logistic dose response fit; effect on Kv3.4 currents; other: 1 mM, bath applied; slope of dose response curve; other: Kv3.4
T1 sequence (Q63734 1-625): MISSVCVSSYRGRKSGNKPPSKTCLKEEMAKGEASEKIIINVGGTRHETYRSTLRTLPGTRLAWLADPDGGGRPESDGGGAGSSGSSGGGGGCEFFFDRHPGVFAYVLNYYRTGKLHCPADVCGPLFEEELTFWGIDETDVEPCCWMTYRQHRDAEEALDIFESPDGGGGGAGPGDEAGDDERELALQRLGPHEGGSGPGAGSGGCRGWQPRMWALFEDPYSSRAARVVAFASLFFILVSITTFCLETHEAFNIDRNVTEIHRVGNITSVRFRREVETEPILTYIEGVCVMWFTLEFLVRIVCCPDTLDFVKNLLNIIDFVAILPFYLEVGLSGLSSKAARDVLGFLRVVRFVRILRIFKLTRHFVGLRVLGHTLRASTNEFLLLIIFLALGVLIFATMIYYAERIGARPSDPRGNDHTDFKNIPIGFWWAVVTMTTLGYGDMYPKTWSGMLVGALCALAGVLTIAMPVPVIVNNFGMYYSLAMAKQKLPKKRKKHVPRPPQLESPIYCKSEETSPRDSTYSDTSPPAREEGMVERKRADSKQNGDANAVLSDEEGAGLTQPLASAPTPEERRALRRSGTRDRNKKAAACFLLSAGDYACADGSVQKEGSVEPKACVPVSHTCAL
Assay: TEVC of X. laevis oocytes expressing Kv3.4
Type: cell-based
Settings: for effect on Kv3.4 currents: 1 mM, bath applied; for slope of dose response curve: Kv3.4; for IC50: Kv3.4, logistic dose response fit
Excerpt: Kv2.1 mutants were constructed using the QuickChange Multi Site-Directed Mutagenesis Kit (Stratagene, La Jolla, Calif.). […] For oocyte expression, Kv3.4 was in pBF1, Kv4.2 was in pRAT. cRNA transcripts were produced from SacII-linearized (Kv2.1), Mlullinearized (Kv3.4) and Not1-linearized (Kv4.2) DNA templates using the T3 (Kv2.1), SP6 (Kv3.4) and T7 (Kv4.2) mMessage mMachine kits (Ambion, Austin, Tex.). cRNA was quantified by spectrophotometry and its size integrity verified by gel electophoresis. Defolliculated stage V and VI Xenopus laevis oocytes (purchased from Nasco, Grand Island, N.Y.) were injected with 5 ng of cRNA encoding Kv2.1, Kv3.4 or Kv4.2. Chinese Hamster Ovary (CHO) cells were transfected with 0.25 μg Kv2.1 cDNA, 2 μg blank plasmid and 2 μg Green fluorescent Protein in pBOB using Supetfect transfection reagent (Qiagen) 24 hours before whole-cell voltage clamp studies.
Oocytes were bathed in a small-volume Warner oocyte bath and viewed with a Fisher dissection microscope. Bath solution for whole-cell oocyte recordings was (in mM): 96 NaCl, 4 KCl, 0.7 MgCl2, 1 CaCl2, 10 HEPES (pH 7.4); whole-cell oocyte TEVC pipettes were of 0.2-2 M resistance when filled with 3 M KCl. Experiments were performed 24-48 hours after cRNA injection. For assessment of current-voltage relationships in the absence or presence of dabco derivatives, oocytes were held at −80 mV, stepped for 2 seconds at voltages between −80 mV and +60 mV in 20 mV steps (Kv2.1) or between −80 and +50 mV in 10 mV steps (Kv3.4), then held for 500 ms at −40 mV before returning to the holding potential. For assessment of block during wash-in of dabco derivatives at a single voltage, oocytes were held at −80 mV, and repetitively stepped to 0 mV for 2 s with an interpulse interval of 10 s or 60 s as indicated. A range of concentrations of dabco or dabco derivatives were washed in via the bath solution during repetitive single-voltage pulses (after an initial period of 5 pulses with control solution to ensure current stabilization) until equilibrium block was achieved, to establish dose-responses. […] Washout was performed after the highest concentration of blocker was washed in. In cases where washout was achieved, only those recordings in which current returned to within 10% of original current level were used for construction of dose-response curves. […] As controls for this protection analysis, JC638.2a or MTSET were washed in alone until equilibrium block, then washed out.
Data analysis: Current-voltage relationships were obtained by measuring peak current during depolarizing pulses. Inhibition constants for DABCO blockers were calculated after generating a dose response curve by fitting with a logistic dose-response function y=A2+[A1−A2/1+(x/x0)^p], where A1 is the maximum response plateau, A2 is the minimum response plateau, x is drug concentrator, x0 is the IC50, and p the Hill slope. Data analysis was performed using […] 9 (Axon Instruments, Foster City, Calif.) and tabulated in Excel 5.0. Graphs were generated using Origin 6.1. Data are expressed as mean±SEM, with n specifying the number of independent experiments. Statistical significance was assessed by one-way ANOVA with p<0.05 being indicative of significance.

Row | Compound | effect on Kv3.4 currents | slope of dose response curve | IC50
1 | c1cc(C[N+]23CCN(CC2)CC3)ccc1C[N+]12CCN(CC1)CC2 [JC638.2α, α,α′-[bis(4-aza-1-azoniabicyclo[2.2.2]octanyl)]p-xylene] | significant inhibition | 1.3±0.2 | 129 ± 20.7 µM
2 | C(CC[N+]12CCN(CC1)CC2)C[N+]12CCN(CC1)CC2 [TG26] | less effective than TG27 |  | 
3 | CCCCCCCCCCCCCCCC[N+]12CCN(CC1)CC2 [TA279, 1-aza-4-azonia-4-hexadecylbicyclo[2.2.2]octane] |  | 2.8±1.1 | 0.6 ± 0.1 µM
4 | CCCCCCCCCCCC[N+]12CCN(CC1)CC2 [JE188, 1-aza-4-azonia-4-dodecylbicyclo[2.2.2]octane] |  | 0.7±0.1 | 34.2 ± 10 µM
